Laboratory results reported in patent publication US6335367B1 (priority 1999, dated 2002).

Key:
Type in all cases: in vivo
[1] = system: Mexican bean beetle Epilachiba varivestis; experiment: Insecticidal leaf disk test, Mexican bean beetle (BB); conditions: 300 grams/hectare; sprayed leaf disk; visual inspection 24-48 hours after spraying
Method: (§1) Numerous compounds of this invention were tested for insecticidal activity in vivo against the insects described below. The following test method was used to evaluate compounds of the present invention for insecticidal activity. The compound to be evaluated was dissolved in an appropriate solvent, usually a mix of acetone, methanol and water, and sprayed over three excised leaf disks using a flat fan nozzle. After spraying, the leaf disks were allowed to dry. Two disks were infested with the leaf chewing insects (southern armyworm and Mexican bean beetle) and the third leaf disk was already infested with the two-spotted spider mite prior to spraying. The tested insect species were:
BB Mexican bean beetle Epilachiba varivestis
(§2) Observations as percent control were made by visual inspection 24-48 hours after spraying.

[2] = system: Pucciitia recoitdita (f. sp. tritici); conditions: 300 grams per hectare; protective spray, inoculated one day after treatment; evaluated after 12 days
Plasiitopara viticola = experiment: Grape Downy Mildew (GDM) protective test on grape plants; conditions: 300 grams/hectare; protective spray; seven days after inoculation
Method: Numerous compounds of this invention were tested for fungicidal activity in vivo against the diseases described below. The compounds were dissolved a 1:1 mixture of acetone and methanol or N, N-dimethylformamide and diluted with a 2:1:1 mixture of water, acetone, and methanol (by volume) or water, respectively, to achieve the appropriate concentration. The solution was sprayed onto the plants, and allowed to dry (two hours). Then the plants were inoculated with fungal spores. Each test utilized control plants which were sprayed with the appropriate solvent mixture and inoculated. For these protective tests, the plants were inoculated one day after treating the plants with the fungicide compound. The remainder of the technique of each of the tests is given below along with the results for various compounds described herein by the Compound # against the various fungi at a dose of 300 grams per hectare. The results are percent disease control are compared to the untreated check wherein one hundred was rated as complete disease control and zero as no disease control.
Plasiitopara viticola was maintained on leaves of grape plants, cultivar. Delaware, in a controlled temperature chamber at 20° C. in humid air with moderate light intensity for 7 to 8 days. A water suspension of the spores from infested leaves was obtained and the spore concentration was adjusted to about 3×10^5 per ml of water. Delaware grape plants were inoculated by spraying the underside of leaves with a DeVilbiss atomizer until small drops were observed on the leaves. The inoculated plants were incubated in a mist chamber for 24 hours at 20° C. The plants were then removed to a controlled environmental room at 20° C. Disease control values were recorded as percent control seven days after inoculation.

[3] = system: two-spotted spider mite Teranychus uricate; experiment: Insecticidal leaf disk test, two-spotted spider mite (MTA); conditions: 300 grams/hectare; leaf disk infested prior to spraying; visual inspection 24-48 hours after spraying
Method: as §1
MTA two-spotted spider mite Teranychus uricate
as §2

Row | SMILES | percent control, Mexican bean beetle [1] [%] | percent disease control, wheat leaf rust [2] [%] | percent disease control, grape downy mildew (Plasiitopara viticola) [%] | percent control, two-spotted spider mite [3] [%]
1 | CO/C=C(/C(=O)OC)c1ccccc1COc1cccc(C2CC2C(=NOC)C2CC2)c1 (stereo not drawn) [Compound 1.34, Methyl (E)-3-methoxy-2-trans-[2-(3-(2-(methoximinocycloprop-1-yl)cyclopropyl)phenoxymethyl)phenyl]-2-propenoate] | 100 | 100 | 100 | 100
2 | COC=C(C(=O)OC)c1ccccc1COc1cccc(C2CC2C(CC(C)C)=NOC)c1 (stereo not shown) [Compound 1.24] | 100 | – | 100 | 100
3 | CCCCCCC(=NOC)C1CC1c1cccc(OCc2ccccc2/C(=C\OC)C(=O)OC)c1 (stereo not drawn) [Compound 1.23, Methyl (E)-3-methoxy-2-trans-[2-(3-(2-(methoximinohept-1-yl)cyclopropyl)-phenoxymethyl)phenyl]-2-propenoate] | 100 | – | 100 | 100
4 | CCON=C(C1CC1)C1CC1c1cccc(OCc2ccccc2C(=COC)C(=O)OC)c1 (single isomer, unassigned) [Compound 1.108A] | 100 | 100 | 100 | 100
5 | COC=C(C(=O)OC)c1ccccc1COc1cccc(C2CC2C(=NOC(C)(C)C)C2CC2)c1 (stereo not shown) [Compound 1.110] | 100 | – | – | 100
6 | CNC(=O)C(=NOC)c1ccccc1COc1cccc(C2CC2C(C)=NOC)c1 (single isomer, unassigned) [Compound 3.18B] | – | 100 | 100 | –
7 | CCON=C(C1CC1)C1CC1c1cccc(OCc2ccccc2C(=COC)C(=O)OC)c1 (single isomer, unassigned) [Compound 1.108B] | – | 100 | 100 | –
8 | CNC(=O)C(=NOC)c1ccccc1COc1cccc(C2CC2C(C)=NOC)c1 (single isomer, unassigned) [Compound 3.18A] | – | 100 | – | –
9 | COC=C(C(=O)OC)c1ccccc1COc1cccc(C2CC2C(C)=NOC)c1 (single isomer, unassigned) [Compound 1.18B] | 100 | 100 | 100 | 100
10 | CCC(C)C(NNc1ccccc1)=C1CC1c1cccc(OCc2ccccc2/C(=C\OC)C(=O)OC)c1 (stereo not drawn) [Compound 4.17, Methyl (E)-3-methoxy-2-trans-[2-(3-(2-(2-ethyl-1-(2-phenylhydrazino)propylidene)cyclopropyl)phenoxymethyl)phenyl]-2-propenoate] | – | 100 | – | –
11 | COC=C(C(=O)OC)c1ccccc1COc1cccc(C2CC2C(C)=NOC)c1 (single isomer, unassigned) [Compound 1.18A] | 100 | 100 | 100 | 100
12 | COC=C(C(=O)OC)c1ccccc1COc1cccc(C2CC2C(=NOC)C2CC=C(C)CC2)c1 (stereo not shown) [Compound 1.33] | 100 | – | – | 100
13 | CNC(=O)C(=NOC)c1ccccc1COc1cccc(C2CC2C(=NOC)C2CC2)c1 (stereo not shown) [Compound 3.34] | – | 100 | 100 | –
14 | COC=C(C(=O)OC)c1ccccc1COc1cccc(C2CC2C(=NNC(=O)c2ccccc2)C2CC2)c1 (stereo not drawn) [Compound 4.98, Methyl (E)-3-methoxy-2-trans-[2-(3-(2-(1-(N-benzoylhydrazinomethylidine)cycloprop-1-yl)cyclopropyl)phenoxymethyl)phenyl]-2-propenoate] | – | 100 | – | –
15 | COC=C(C(=O)OC)c1ccccc1COc1cccc(C2CC2C(=NOC)c2ccc(Cl)cc2)c1 (stereo not shown) [Compound 1.04] | – | 100 | – | 100
16 | COC=C(C(=O)OC)c1ccccc1COc1cccc(C2CC2C(=NOCc2ccccc2)C2CC2)c1 (stereo not shown) [Compound 1.115] | 100 | – | 100 | 100
